Experimental data as given in patent US10213415B2, “Compounds as opioid receptor modulators” (JANSSEN PHARMACEUTICA NV, priority 2004, dated 2019).

molecular target: T1, human mu opioid receptor (Homo sapiens, UniProt P35372); experiment: Human Mu Opioid Receptor Binding Assay (CHO membranes, 3H-Damgo); conditions: read-out: hKi μ
T1 construct: purchased Perkin Elmer RBHOMM400UA; host or cells: Chinese Hamster Ovary cells (recombinant expression)
Experimental: Membranes from Chinese Hamster Ovary cells expressing the human […] opioid receptor (Perkin Elmer #RBHOMM400UA) are homogenized in assay buffer (50 mM Tris, pH 7.5 with 5 mM MgCl2) using a glass tissue grinder, Teflon pestle and a Steadfast Stirrer (Fisher Scientific). The concentration of membranes is adjusted to 300 μg/mL in assay buffer and 100 μL is dispensed into each well of the assay plate, a 96 well round bottom polypropylene plate. Compounds to be tested are solubilized in DMSO (Pierce), 10 mM, then diluted in assay buffer to 6× the desired final concentration. The ligand, ^3H-Damgo (Perkin Elmer #NET-902) is also diluted in assay buffer to 3.6 nM. In a second 96 well round bottom polypropylene plate, known as the premix plate, 60 μL of the 6× compound is combined with 60 μL of 3.6 nM ^3H-Damgo. From this premix plate 50 μL is transferred to the assay plate containing the membranes, in duplicate. The assay plate is incubated for 2 h at room temperature. A GF/C 96 well filter plate (Perkin Elmer #6005174) is pretreated with 0.3% polyethylenimine for 30 min. The contents of the assay plate are filtered through the filter plate using a Packard Filtermate Harvester, and washed 3 times with 0.9% saline that is 4° C. The filter plate is dried, the underside sealed, and 30 μL Microscint20 (Packard #6013621) added to each well. A Topcount-NXT Microplate Scintillation Counter (Packard) is used to measure emitted energies in the range of 2.9 to 35 KeV. […] Nonspecific binding is determined in the presence of 1 μM unlabelled Damgo (Tocris #1171).

T1 sequence (P35372 whole entry): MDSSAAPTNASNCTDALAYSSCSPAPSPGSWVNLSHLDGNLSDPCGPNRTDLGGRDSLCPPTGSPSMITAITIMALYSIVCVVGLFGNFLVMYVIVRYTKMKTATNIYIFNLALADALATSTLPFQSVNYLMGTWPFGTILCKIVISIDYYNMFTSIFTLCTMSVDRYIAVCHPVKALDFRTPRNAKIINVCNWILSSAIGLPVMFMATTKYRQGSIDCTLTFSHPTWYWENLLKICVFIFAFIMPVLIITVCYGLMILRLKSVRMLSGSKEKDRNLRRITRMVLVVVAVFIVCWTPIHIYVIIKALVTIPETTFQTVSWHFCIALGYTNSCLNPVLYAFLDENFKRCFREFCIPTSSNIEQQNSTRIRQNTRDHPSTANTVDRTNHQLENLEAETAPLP

SMILES | Ki
Cc1cc(C(N)=O)cc(C)c1C[C@H](N)C(=O)N(Cc1ccccc1C#N)[C@@H](C)c1nc(-c2ccccc2)c[nH]1 [Cpd 2] | 2.9 nM
Cc1cc(C(N)=O)cc(C)c1C[C@H](N)C(=O)N(Cc1ccccc1Br)[C@@H](C)c1nc(-c2ccccc2)c[nH]1 [Cpd 3] | 13 nM
COC(=O)c1cc(CN(Cc2nc(-c3ccccc3)c[nH]2)C(=O)[C@@H](N)Cc2c(C)cc(C(N)=O)cc2C)ccc1OC [Cpd 7] | 6.8 nM
COC(=O)c1cccc(CN(C(=O)[C@@H](N)Cc2c(C)cc(C(N)=O)cc2C)[C@@H](C)c2nc(-c3cccc4ccccc34)c[nH]2)c1 [Cpd 10] | 15.5 nM
Cc1cc(C(N)=O)cc(C)c1C[C@H](N)C(=O)N(Cc1ccc(C(=O)O)cc1)[C@@H](C)c1nc(-c2cccc3ccccc23)c[nH]1 [Cpd 13] | 4.8 nM
Cc1cc(O)cc(C)c1C[C@H](N)C(=O)N(Cc1ccc(O)c(O)c1)[C@@H](C)c1nc(-c2ccccc2)c[nH]1 [Cpd 15] | 285 nM
Cc1cc(O)cc(C)c1C[C@H](N)C(=O)N(CC1CCNCC1)[C@@H](C)c1nc(-c2ccccc2)c[nH]1 [Cpd 16] | 16 nM
COc1ccc(CN(C(=O)[C@@H](N)Cc2c(C)cc(C(N)=O)cc2C)[C@@H](C)c2nc(-c3cccc(Br)c3)c[nH]2)cc1OC [Cpd 19] | 18.2 nM
COc1ccc(CN(C(=O)[C@@H](N)Cc2c(C)cc(O)cc2C)[C@@H](COCc2ccccc2)c2nc(-c3ccccc3)c[nH]2)cc1OC [Cpd 21] | 37.6 nM
COc1ccc(CN(C(=O)[C@@H](N)Cc2c(C)cc(O)cc2C)[C@H](COCc2ccccc2)c2nc(-c3ccccc3)c[nH]2)cc1OC [Cpd 22] | ~200 nM
COc1ccc(CN(C(=O)[C@@H](N)Cc2c(C)cc(C(N)=O)cc2C)[C@@H](C)c2nc(-c3cccc(C(N)=O)c3)c[nH]2)cc1OC [Cpd 23] | 34.3 nM
COc1ccc(CN(C(=O)[C@@H](N)Cc2c(C)cc(C(N)=O)cc2C)[C@@H](C)c2nc(-c3cccc(C#N)c3)c[nH]2)cc1OC [Cpd 24] | 9.3 nM
COc1ccc(CN(C(=O)[C@@H](N)Cc2c(C)cc(C(N)=O)cc2C)[C@@H](C)c2nc(-c3ccccc3Br)c[nH]2)cc1OC [Cpd 26] | 17 nM
COc1ccc(CN(C(=O)[C@@H](N)Cc2c(C)cc(C(N)=O)cc2C)[C@@H](C)c2nc(-c3ccccc3C#N)c[nH]2)cc1OC [Cpd 27] | 30 nM
COc1ccc(CN(C(=O)[C@@H](N)Cc2c(C)cc(C(N)=O)cc2C)[C@@H](C)c2nc(-c3ccccc3C(N)=O)c[nH]2)cc1OC [Cpd 28] | 44 nM
Cc1cc(O)cc(C)c1C[C@H](N)C(=O)N(Cc1ccc(OCc2ccccc2)c(OCc2ccccc2)c1)[C@@H](C)c1nc(-c2ccccc2)c[nH]1 [Cpd 30] | 34 nM
COc1ccc(CN(C(=O)[C@@H](N)Cc2c(C)cc(O)cc2C)[C@@H](C)c2nc(-c3ccccc3)c[nH]2)cc1 [Cpd 32] | 6.8 nM
COc1cccc(CN(C(=O)[C@@H](N)Cc2c(C)cc(O)cc2C)[C@@H](C)c2nc(-c3ccccc3)c[nH]2)c1 [Cpd 33] | 6.9 nM
COc1ccc(CN(C(=O)[C@@H](N)Cc2c(C)cc(O)cc2C)[C@@H](C)c2nc(-c3ccccc3)c[nH]2)c(OC)c1 [Cpd 34] | 19 nM
COc1ccc(CN(Cc2nc(-c3ccccc3)c[nH]2)C(=O)[C@@H](N)Cc2c(C)cc(O)cc2C)cc1OC [Cpd 35] | 2.8 nM
Cc1cc(O)cc(C)c1C[C@H](N)C(=O)N(Cc1nc(-c2ccc(C(=O)O)c(F)c2)c(C)[nH]1)C(C)C [Cpd 37] | 183 nM

SMILES | Ki
Cc1cc(O)cc(C)c1C[C@H](N)C(=O)N(Cc1nc(C=Cc2ccccc2)c(C)[nH]1)C(C)C [Cpd 38] | 19 nM
Cc1cc(O)cc(C)c1C[C@H](N)C(=O)N(Cc1nc(-c2ccc(CO)cc2)c(C)[nH]1)C(C)C [Cpd 39] | 0.9 nM
Cc1cc(O)cc(C)c1C[C@H](N)C(=O)N(Cc1nc(-c2ccccc2)c[nH]1)C(c1ccccc1)c1ccccc1 [Cpd 40] | 152 nM
Cc1cc(O)cc(C)c1C[C@H](N)C(=O)N(Cc1nc(-c2ccc(C#N)cc2)c(C)[nH]1)C(C)C [Cpd 41] | 1.6 nM
Cc1cc(C(N)=O)cc(C)c1C[C@H](N)C(=O)N(Cc1ccccc1)[C@@H](C)c1nc(-c2ccc(C(F)(F)F)cc2)c[nH]1 [Cpd 42] | 5.8 nM
Cc1cc(O)cc(C)c1C[C@H](N)C(=O)N(Cc1nc(-c2cccc(OC(F)(F)F)c2)c(C)[nH]1)C(C)C [Cpd 43] | 6.9 nM
Cc1cc(O)cc(C)c1C[C@H](N)C(=O)N(Cc1nc(-c2ccc(OC(F)(F)F)cc2)c(C)[nH]1)C(C)C [Cpd 44] | 8.7 nM
Cc1cc(O)cc(C)c1C[C@H](N)C(=O)N(Cc1nc(-c2cccc(NS(C)(=O)=O)c2)c(C)[nH]1)C(C)C [Cpd 45] | 1.2 nM
Cc1cc(O)cc(C)c1C[C@H](N)C(=O)N(Cc1nc(-c2ccc(CCC(=O)O)cc2)c(C)[nH]1)C(C)C [Cpd 46] | 35 nM
Cc1cc(O)cc(C)c1C[C@H](N)C(=O)N(Cc1nc(-c2cc(N)cc(C(=O)O)c2)c(C)[nH]1)C(C)C [Cpd 47] | 22 nM
Cc1cc(C(=O)O)cc(C)c1C[C@H](N)C(=O)N(Cc1ccc(C(=O)O)cc1)[C@@H](C)c1nc(-c2ccccc2)c[nH]1 [Cpd 49] | 48 nM
Cc1cc(C(N)=O)cc(C)c1C[C@H](N)C(=O)N(Cc1ccccc1)[C@H](C)c1nc(-c2ccccc2)c[nH]1 [Cpd 113] | 16 nM
Cc1cc(C(N)=O)cc(C)c1C[C@H](N)C(=O)N(C1CCCCC1)[C@H](C)c1nc(-c2ccccc2)c[nH]1 [Cpd 128] | 58 nM
Cc1cc(O)cc(C)c1C[C@H](N)C(=O)N(CC(=O)O)Cc1nc(-c2ccccc2)c[nH]1 [Cpd 129] | 25.3 nM
Cc1[nH]c(CN(C(=O)[C@@H](N)Cc2ccc(O)cc2)C(C)C)nc1-c1cncnc1 [Cpd 132] | 166 nM
CC(C)[C@@H](c1nc(-c2ccccc2)c[nH]1)N(C(=O)[C@@H](N)Cc1cccc(C(N)=O)c1)C(C)C [Cpd 137] | 445 nM
C[C@@H](c1nc(Cc2ccccc2)c[nH]1)N(C)C(=O)[C@@H](N)Cc1ccc(O)cc1 [Cpd 204] | 7.7 nM
COc1cc(Br)c(CN(C(=O)[C@@H](N)Cc2c(C)cc(C(N)=O)cc2C)[C@@H](C)c2nc(-c3ccccc3)c[nH]2)cc1OC [Cpd 229] | 12 nM
COC(=O)c1cc(CN(C(=O)[C@@H](N)Cc2ccccc2)[C@@H](C)c2nc(-c3ccccc3)c[nH]2)ccc1OC [Cpd 266] | 69 nM
COC(=O)c1cc(CN(C(=O)[C@@H](N)Cc2c(C)cc(O)cc2C)[C@@H](C)c2nc(-c3ccccc3)c[nH]2)ccc1OC [Cpd 268] | 5.79 nM
CN[C@@H](Cc1ccc(OCc2ccccc2)cc1)C(=O)N(Cc1ccc(OC)c(C(=O)O)c1)[C@@H](C)c1nc(-c2ccccc2)c[nH]1 [Cpd 274] | > 1000 nM

molecular target: T2, mu opioid receptor (CHO-hMOR cell membranes) (Homo sapiens, UniProt P35372); experiment: Mu Opioid Receptor Functional Assay: [35S]GTPγS Binding in CHO-hMOR Cell Membranes, Versions 1 and 2; type: biochemical; conditions: version 2, % inhibition of agonist-stimulated GTPγS binding
T2 construct: purchased Receptor Biology, Inc. (Baltimore, Md.); host or cells: CHO cells (recombinant expression)
T2 sequence (P35372 whole entry): as above
Experimental: CHO-hMOR cell membranes were purchased from Receptor Biology, Inc. (Baltimore, Md.). About 10 mg/ml of membrane protein was suspended in 10 mM TRIS-HCl pH 7.2, 2 mM EDTA, 10% sucrose, and the suspension kept on ice. One ml of membranes was added to 15 ml cold binding assay buffer containing 50 mM HEPES, pH 7.6, 5 mM MgCl2, 100 mM NaCl, 1 mM DTT and 1 mM EDTA. The membrane suspension was homogenized with a Polytron and centrifuged at 3,000 rpm for 10 min. The supernatant was then centrifuged at 18,000 rpm for 20 min. The pellet was resuspended in 10 ml assay buffer with a Polytron.
The membranes were preincubated with wheat germ agglutinin coated SPA beads (Amersham) at 25° C. for 45 min in the assay buffer. The SPA bead (5 mg/ml) coupled membranes (10 μg/ml) were then incubated with 0.5 nM [^35S]GTPγS in the assay buffer. […] A range of concentrations of receptor agonists was used to stimulate [^35S]GTPγS binding. Both basal and non-specific binding was tested in the absence of agonist; non-specific binding determination included 10 μM unlabeled GTPγS.
Compounds were tested for function as antagonists by evaluating their potential to inhibit agonist-stimulated GTPγS binding. Radioactivity was quantified on a Packard TopCount. The following parameters were calculated:
[formula] % Inhibition=(% stimulation by 1 μM SNC80−% stimulation by 1 μM SNC80 in presence of test compound)×100/(% Stimulation by 1 μM SNC80−100)
EC50 values were calculated using GraphPad Prism.

SMILES | MOR GTP binding assay_v2 (% I)
COc1ccc(CN(C(=O)[C@@H](N)Cc2c(C)cc(C(N)=O)cc2C)[C@@H](C)c2nc(-c3ccccc3)c[nH]2)cc1-c1nnn(C(C)(C)C)n1 [Cpd 309] | 47.00%
COC(=O)N[C@@H](Cc1c(C)cc(C(N)=O)cc1C)C(=O)N(Cc1ccc(OC)c(C(=O)OC)c1)[C@@H](C)c1nc(-c2ccccc2)c[nH]1 [Cpd 310] | 51.00%
COC(=O)c1ccnc(CN(C(=O)[C@@H](N)Cc2c(C)cc(C(N)=O)cc2C)[C@@H](C)c2nc(-c3ccccc3)c[nH]2)c1 [Cpd 312] | 35.00%
Cc1cc(C(N)=O)cc(C)c1C[C@H](N)C(=O)N(Cc1ccnc(C(=O)O)c1)[C@@H](C)c1nc(-c2ccccc2)c[nH]1 [Cpd 316] | 76%

same assay, conditions: version 2, read-out: MOR GTP binding assay v2 EC50

SMILES | EC50
COc1ccc(CN(C(=O)[C@@H](N)Cc2c(C)cc(C(N)=O)cc2C)[C@@H](C)c2nc(-c3ccccc3)c[nH]2)cc1-c1nnn(C(C)(C)C)n1 [Cpd 309] | 23 nM
COC(=O)N[C@@H](Cc1c(C)cc(C(N)=O)cc1C)C(=O)N(Cc1ccc(OC)c(C(=O)OC)c1)[C@@H](C)c1nc(-c2ccccc2)c[nH]1 [Cpd 310] | 3920 nM
COC(=O)c1ccnc(CN(C(=O)[C@@H](N)Cc2c(C)cc(C(N)=O)cc2C)[C@@H](C)c2nc(-c3ccccc3)c[nH]2)c1 [Cpd 312] | 58.7 nM
Cc1cc(C(N)=O)cc(C)c1C[C@H](N)C(=O)N(Cc1ccnc(C(=O)O)c1)[C@@H](C)c1nc(-c2ccccc2)c[nH]1 [Cpd 316] | 24.1 nM
